From US6737383B1, “Herbicidal oxadiazolidines” (priority 1999, dated 2004)

What was measured:
[1] = test system: hairy beggarticks; test: Test C postemergence hairy beggarticks; assay type: in vivo, Bidens pilosa; conditions: 0 to 100 scale, 0 no effect, 100 complete control
Summary of the method: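 Soil: sandy loam/potting mix 60:40. Treatment: postemergence, solvent + surfactant formulation. Readout: visual control score 0–100 vs untreated at ~14–21 days.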

[2] = test system: field violet; test: Test E field violet; assay type: in vivo, Viola arvensis; conditions: Postemergence; for Plant response rating, Field violet: 0 to 100 scale; for Field violet plant response rating: Rate 250 g/ha, 0 to 100 scale where 0 is no effect and 100 is complete control
Procedure: (§1) Compounds evaluated in this test were formulated in a non-phytotoxic solvent mixture which included a surfactant and applied to plants that were in the 1- to 4-leaf stage (postemergence application). A mixture of sandy loam soil and greenhouse potting mix in a 60:40 ratio was used for the postemergence test.
(§2) Plantings of these crops and weed species were adjusted to produce plants of appropriate size for the postemergence test. All plant species were grown using normal greenhouse practices. Crop and weed species include annual bluegrass (Poa annua), blackgrass (Alopecurus myosuroides), black nightshade (Solanum nigra), chickweed (Stellaria media), common poppy (Papaver rhoeas), deadnettle (Lamium amplexicaule), downy brome (Bromus tectorum), field violet (Viola arvensis), galium (Galium aparine), green foxtail (Setaria viridis), Italian ryegrass (Lolium multiflorum), jointed goatgrass (Aegilops cylindrica), kochia (Kochia scoparia), lambsquarters (Chenopodium album), littleseed canarygrass (Phalaris minor), rape (Brassica napus), redroot pigweed (Amaranthus retroflexus), Russian thistle (Salsola kali), scentless chamomile (Matricaria inodora), spring barley (Hordeum vulgare), sugar beet (Beta vulgaris), sunflower (Helianthus annuus), ivyleaf speedwell (Veronica hederaefolia), spring wheat (Triticum aestivum), winter wheat (Triticum aestivum), wild buckwheat (Polygonum convolvulus), wild mustard (Sinapis arvensis), wild oat (Avena fatua), windgrass (Apera spica-venti) and winter barley (Hordeum vulgare).
(§3) Treated plants and untreated controls were maintained in a greenhouse for approximately 21 to 28 days, after which all treated plants were compared to untreated controls and visually evaluated. […] A dash response (-) means no test result.

[3] = test system: lambsquarters; test: Test C postemergence lambsquarters; assay type: in vivo, Chenopodium album; conditions: 0 to 100 scale, 0 no effect, 100 complete control
Procedure: as §1, with “grown for various periods of time before treatment” for “in the 1- to 4-leaf stage”
(§4) Plantings of these crops and weed species were adjusted to produce plants of appropriate size for the postemergence test. All plant species were grown using normal greenhouse practices. Crop and weed species include arrowleaf sida (Sida rhombifolia), barnyardgrass (Echinochloa crus-galli), cocklebur (Xanthium strumarium), common ragweed (Ambrosia elatior), corn (Zea mays), cotton (Gossypium hirsutum), eastern black nightshade (Solanum ptycanthum), fall panicum (Panicum dichotomiflorum), field bindweed (Convolvulus arvensis), giant foxtail (Setaria faberii), hairy beggarticks (Bidens pilosa), ivyleaf morningglory (Ipomoea hederacea), johnsongrass (Sorghum halepense), ladysthumb smartweed (Polygonum persicaria), lambsquarters (Chenopodium album), large crabgrass (Digitaria sanguinalis), purple nutsedge (Cyperus rotundus), redroot pigweed (Amaranthus retroflexus), soybean (Glycine max), surinam grass (Brachiaria decumbens), velvetleaf (Abutilon theophrasti) and wild poinsettia (Euphorbia heterophylla).
(§5) Treated plants and untreated controls were maintained in a greenhouse for approximately 14, to 21 days, after which all treated plants were compared to untreated controls and visually evaluated. Plant response ratings, summarized in Table C, were based upon a 0 to 100 scale where 0 was no effect and 100 was complete control. A dash response (−) means no test result.

[4] = test system: black nightshade; test: Test E black nightshade; assay type: in vivo, Solanum nigra; conditions: Preemergence; for Blk nightshade plant response rating (0 to 100 scale): Rate 250 g/ha
[5] = test system: fall panicum; test: Test C postemergence fall panicum; assay type: in vivo, Panicum dichotomiflorum; conditions: 0 to 100 scale, 0 no effect, 100 complete control
Procedure: as §1, with “grown for various periods of time before treatment” for “in the 1- to 4-leaf stage”
as §4, §5

[6] = test system: Russian thistle; test: Test E Russian thistle; assay type: in vivo, Salsola kali; conditions: Postemergence; for Plant response rating, Russian thistle: 0 to 100 scale; for Russian thistle plant response rating: Rate 250 g/ha, 0 to 100 scale where 0 is no effect and 100 is complete control
Procedure: […] A mixture of sandy loam soil and greenhouse potting mix in a 60:40 ratio was used for the postemergence test.
as §2, §3

[7] = test system: blackgrass; test: Test E blackgrass; assay type: in vivo, Alopecurus myosuroides; conditions: Postemergence; for Plant response rating, Blackgrass: 0 to 100 scale; for Blackgrass plant response rating: Rate 250 g/ha, 0 to 100 scale where 0 is no effect and 100 is complete control
Summary of the method: (§6)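 Postemergence: 60:40 sandy loam/greenhouse potting mix, 1- to 4-leaf stage. Formulation: solvent plus surfactant. Assessment: visual comparison with untreated controls at ~21–28 days.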

[8] = test system: galium; test: Test E galium; assay type: in vivo, Galium aparine; conditions: Postemergence; for Plant response rating, Galium: 0 to 100 scale; for Galium plant response rating: Rate 250 g/ha, 0 to 100 scale where 0 is no effect and 100 is complete control
Summary of the method: as §6

[9] = test system: Spanishneedles; test: Test D Spanishneedles; assay type: in vivo, Bidens bipinnata; conditions: Postemergence, 0 to 100 scale
[10] = test system: common groundsel; test: Test D common groundsel; assay type: in vivo, Senecio vulgaris; conditions: Postemergence, 0 to 100 scale
[11] = test system: Green foxtail; test: Test D green foxtail; assay type: in vivo; conditions: Postemergence, 0 to 100 scale, 0 no injury, 100 complete control
[12] = test system: purple nutsedge; test: Test D purple nutsedge; assay type: in vivo, Cyperus rotundus; conditions: Postemergence, 0 to 100 scale
[13] = test system: tall mallow; test: Test D tall mallow; assay type: in vivo, Malva sylvestris; conditions: Postemergence, 0 to 100 scale
[14] = test system: large crabgrass; test: Test D large crabgrass; assay type: in vivo, Digitaria sanguinalis; conditions: Postemergence, 0 to 100 scale
[15] = test system: guineagrass; test: Test D guineagrass; assay type: in vivo, Panicum maximum; conditions: Postemergence, 0 to 100 scale
[16] = Rate 125 g/ha, 0 to 100 scale (0 no effect, 100 complete control)
[17] = Rate 16 g/ha, 0 no injury, 100 complete control
[18] = Rate 32 g/ha, 0 no injury, 100 complete control
[19] = Rate 64 g/ha, 0 no injury, 100 complete control
[20] = Rate 125 g/ha, 0 no injury, 100 complete control
[21] = Rate 125 g/ha, 0 is no effect, 100 is complete control
[22] = Rate 500 g/ha, 0 is no effect, 100 is complete control

CC(C)N(C(=O)n1oc(=O)n(C)c1=O)c1ccc(F)cc1 [Compound 138]
Plant response rating H. beggarticks ([1]; Rate 280 g/ha): 10
Plant response rating H. beggarticks ([1]; Rate 1120 g/ha): 80
Plant response rating, Field violet ([2]; Rate 125 g/ha): 10
Field violet plant response rating [2]: 30
Plant response rating Lambsquarters ([3]; Rate 140 g/ha): 0
Plant response rating Lambsquarters ([3]; Rate 280 g/ha): 0
Plant response rating Lambsquarters ([3]; Rate 560 g/ha): 10
Plant response rating Lambsquarters ([3]; Rate 1120 g/ha): 20
Plant response rating, Blk nightshade [4, 16]: 85
Blk nightshade plant response rating (0 to 100 scale) [4]: 95
Plant response rating Fall panicum ([5]; Rate 140 g/ha): 0
Plant response rating Fall panicum ([5]; Rate 280 g/ha): 0
Plant response rating Fall panicum ([5]; Rate 560 g/ha): 60
Plant response rating Fall panicum ([5]; Rate 1120 g/ha): 90
Plant response rating, Russian thistle ([6]; Rate 125 g/ha): 0
Russian thistle plant response rating [6]: 0
Plant response rating, Blackgrass ([7]; Rate 125 g/ha): 20
Blackgrass plant response rating [7]: 0
Plant response rating, Galium ([8]; Rate 125 g/ha): 20
Galium plant response rating [8]: 50

CC(C)N(C(=O)n1oc(=O)n(C2CC2)c1=O)c1ccc(F)cc1 [Compound 242]
Plant response rating, Spanishneedles [9, 17]: 0
Plant response rating, Spanishneedles [9, 18]: 0
Spanishneedles plant response rating [9, 19]: 0
Spanishneedles plant response rating [9, 20]: 0
Plant response rating, Spanishneedles ([9]; Rate 250 g/ha): 100
Plant response rating H. beggarticks ([1]; Rate 1120 g/ha): 90
Plant response rating, Field violet ([2]; Rate 62 g/ha): 30
Plant response rating, Field violet [2, 21]: 60
Field violet plant response rating [2]: 0
Plant response rating, Field violet [2, 22]: 40
Plant response rating Lambsquarters ([3]; Rate 140 g/ha): 0
Plant response rating Lambsquarters ([3]; Rate 280 g/ha): 0
Plant response rating Lambsquarters ([3]; Rate 560 g/ha): 0
Plant response rating Lambsquarters ([3]; Rate 1120 g/ha): 0
Plant response rating, Blk nightshade [4, 16]: 70
Blk nightshade plant response rating (0 to 100 scale) [4]: 95
Plant response rating, Blk nightshade ([4]; Rate 500 g/ha, 0 to 100 scale where 0 is no effect and 100 is complete control): 95
Plant response rating Fall panicum ([5]; Rate 140 g/ha): 30
Plant response rating Fall panicum ([5]; Rate 280 g/ha): 85
Plant response rating Fall panicum ([5]; Rate 560 g/ha): 90
Plant response rating Fall panicum ([5]; Rate 1120 g/ha): 90
Plant response rating, Com. groundsel [10, 17]: 0
Plant response rating, Com. groundsel [10, 18]: 100
Plant response rating, Com. groundsel [10, 19]: 90
Plant response rating, Com. groundsel [10, 20]: 90
Plant response rating, Com. groundsel ([10]; Rate 250 g/ha): 100
Plant response rating, Green foxtail ([11]; Rate 16 g/ha): 30
Plant response rating, Green foxtail ([11]; Rate 32 g/ha): 100
Plant response rating, Purple nutsedge [12, 17]: 0
Plant response rating, Purple nutsedge [12, 18]: 0
Purple nutsedge plant response rating [12, 19]: 0
Purple nutsedge plant response rating [12, 20]: 0
Plant response rating, Purple nutsedge ([12]; Rate 250 g/ha): 100
Plant response rating, Russian thistle ([6]; Rate 62 g/ha): 50
Plant response rating, Russian thistle [6, 21]: 0
Russian thistle plant response rating [6]: 0
Plant response rating, Russian thistle [6, 22]: 0
Plant response rating, Tall Mallow [13, 17]: 0
Plant response rating, Tall Mallow [13, 18]: 0
Tall Mallow plant response rating [13, 19]: 50
Tall Mallow plant response rating [13, 20]: 90
Plant response rating, Tall Mallow ([13]; Rate 250 g/ha): 100
Plant response rating, Large crabgrass [14, 17]: 0
Plant response rating, Large crabgrass [14, 18]: 100
Plant response rating, Large crabgrass [14, 19]: 100
Plant response rating, Large crabgrass [14, 20]: 100
Plant response rating, Large crabgrass ([14]; Rate 250 g/ha): 100
Plant response rating, Blackgrass ([7]; Rate 62 g/ha): 60
Plant response rating, Blackgrass [7, 21]: 0
Blackgrass plant response rating [7]: 10
Plant response rating, Blackgrass [7, 22]: 50
Plant response rating, Galium ([8]; Rate 62 g/ha): 0
Plant response rating, Galium [8, 21]: 20
Galium plant response rating [8]: 30
Plant response rating, Galium [8, 22]: 40
Plant response rating, Guineagrass [15, 17]: 0
Plant response rating, Guineagrass [15, 18]: 100
Guineagrass plant response rating [15, 19]: 80
Plant response rating, Guineagrass [15, 19]: 0
Plant response rating, Guineagrass [15, 20]: 100
Plant response rating, Guineagrass ([15]; Rate 250 g/ha): 100

CC(C)N(C(=O)n1oc(=O)n(C2CCCCCC2)c1=O)c1ccc(F)cc1F [Compound 342]
Plant response rating, Spanishneedles [9, 17]: 0
Plant response rating, Spanishneedles [9, 18]: 0
Spanishneedles plant response rating [9, 19]: 0
Spanishneedles plant response rating [9, 20]: 0
Plant response rating, Spanishneedles ([9]; Rate 250 g/ha): 0
Plant response rating, Com. groundsel [10, 18]: 0
Plant response rating, Com. groundsel [10, 20]: 0
Plant response rating, Com. groundsel ([10]; Rate 250 g/ha): 0
Plant response rating, Green foxtail ([11]; Rate 16 g/ha): 0
Plant response rating, Green foxtail ([11]; Rate 32 g/ha): 0
Plant response rating, Purple nutsedge [12, 17]: 0
Plant response rating, Purple nutsedge [12, 18]: 0
Purple nutsedge plant response rating [12, 19]: 0
Purple nutsedge plant response rating [12, 20]: 0
Plant response rating, Purple nutsedge ([12]; Rate 250 g/ha): 0
Plant response rating, Tall Mallow [13, 17]: 0
Plant response rating, Tall Mallow [13, 18]: 0
Tall Mallow plant response rating [13, 19]: 0
Tall Mallow plant response rating [13, 20]: 0
Plant response rating, Tall Mallow ([13]; Rate 250 g/ha): 10
Plant response rating, Large crabgrass [14, 17]: 0
Plant response rating, Large crabgrass [14, 18]: 0
Plant response rating, Large crabgrass [14, 19]: 40
Plant response rating, Large crabgrass [14, 20]: 100
Plant response rating, Large crabgrass ([14]; Rate 250 g/ha): 100
Plant response rating, Guineagrass [15, 17]: 0
Plant response rating, Guineagrass [15, 18]: 0
Guineagrass plant response rating [15, 19]: 0
Plant response rating, Guineagrass [15, 19]: 80
Plant response rating, Guineagrass [15, 20]: 50
Plant response rating, Guineagrass ([15]; Rate 250 g/ha): 90
